# Measured values from PubChem BioAssay (NCI).
# Values joined by “and” are separate entries in the source; they are usually repeats but may differ in a detail not shown here. Identical values can stand only once.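 Five compound concentrations were applied to cells in 96-well plates for 48 hours; endpoints were derived by simple linear interpolation of the resulting dose-response curve. At the GI50, growth is halved. TGI denotes the concentration required for complete inhibition of growth.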
# Tests used:
# Assay in all cases: NCI tumour cell line growth inhibition, 48 h
# ACHN renal = tested on: ACHN renal
# SK-OV-3 ovarian = tested on: SK-OV-3 ovarian
# SNB-75 CNS = tested on: SNB-75 CNS
# SF-539 CNS = tested on: SF-539 CNS
# KM12 colon = tested on: KM12 colon
# MOLT-4 leukemia = tested on: MOLT-4 leukemia
# SN12C renal = tested on: SN12C renal
# HL-60(TB) leukemia = tested on: HL-60(TB) leukemia
# OVCAR-3 ovarian = tested on: OVCAR-3 ovarian
# LOX IMVI melanoma = tested on: LOX IMVI melanoma
SMILES,GI50 (ACHN renal),TGI (ACHN renal),GI50 (SK-OV-3 ovarian),TGI (SK-OV-3 ovarian),GI50 (SNB-75 CNS),TGI (SNB-75 CNS),GI50 (SF-539 CNS),TGI (SF-539 CNS),GI50 (KM12 colon),TGI (KM12 colon),GI50 (MOLT-4 leukemia),TGI (MOLT-4 leukemia),GI50 (SN12C renal),TGI (SN12C renal),GI50 (HL-60(TB) leukemia),TGI (HL-60(TB) leukemia),GI50 (OVCAR-3 ovarian),TGI (OVCAR-3 ovarian),GI50 (LOX IMVI melanoma),TGI (LOX IMVI melanoma)
COc1cc(/C=C/C(=O)c2c(C)n([O-])c3ccc(Cl)cc3[n+]2=O)cc(OC)c1OC,> 100 µM,> 100 µM,34.6 µM,> 100 µM,17.3 µM,40.6 µM,25.4 µM,52.6 µM,> 100 µM,> 100 µM,> 100 µM,> 100 µM,67.6 µM,> 100 µM,> 100 µM,> 100 µM,> 100 µM,> 100 µM,90.2 µM,> 100 µM
Cc1cc(=O)oc2cc(OCc3nc4ccccc4c(=O)[nH]3)ccc12,,> 100 µM,,> 100 µM,,> 100 µM,,> 100 µM,,> 100 µM,,> 100 µM,,> 100 µM,,> 100 µM,,> 100 µM,,> 100 µM
O=C(CCCCCCC(=O)Nc1ccc2c(c1)/C(=C/c1ccc[nH]1)C(=O)N2)NO,0.904 µM,4.67 µM,0.341 µM,3.85 µM,0.194 µM,65.4 µM,0.603 µM,16 µM,0.894 µM,> 23.2 µM,0.289 µM,> 100 µM,2.07 µM,26.5 µM,0.464 µM,> 100 µM,0.354 µM,5.51 µM,0.548 µM,2.08 µM
O=C(N/N=C\c1ccc(N(CCCl)CCCl)cc1Cl)c1cccnc1,28.5 µM,> 100 µM,26.6 µM,> 100 µM,20.1 µM,73.7 µM,33.1 µM,> 100 µM,19.4 µM,64.3 µM,10.5 µM,42.7 µM,24.1 µM,> 84.4 µM,7.5 µM,36.5 µM,3.37 µM,14.3 µM,16.1 µM,52.6 µM
c1ccc(SC(CCCCOC2CCCCO2)Sc2ccccc2)cc1 (configuration not stated),,> 100 µM,,> 100 µM,,> 100 µM,,> 100 µM,,> 100 µM,,> 100 µM,,> 100 µM,,47.5 µM,,> 100 µM,,> 100 µM
OC(CNc1ccnc2cc(Cl)ccc12)CNC1CCCCC1 (configuration not stated),6.06 µM,19.4 µM,10.5 µM,32.8 µM,2.1 µM,8.31 µM,1.76 µM,3.38 µM,13 µM,27.3 µM,9.15 µM,31.9 µM,12 µM,48.4 µM,10.9 µM,28.7 µM,15 µM,34.7 µM,4.57 µM,16.7 µM
O=C(/C=C/c1ccc(C(F)(F)F)cc1)c1ccc(Nc2nc(NCCO)nc(N3CCOCC3)n2)cc1,1.86 µM,3.86 µM,3.82 µM,> 100 µM,1.84 µM,7.9 µM,1.64 µM,3.06 µM,1.8 µM,3.3 µM,2.45 µM,9.05 µM,2.22 µM,5.69 µM,2.92 µM,8.64 µM,1.96 µM,3.79 µM,1.67 µM,3.11 µM
CC1(C)C2C/C(=C\c3ccccc3)C(=O)C1C2 (configuration not stated),,> 100 µM,,> 100 µM,,97.5 µM,,> 100 µM,,> 100 µM,,> 100 µM,,> 100 µM,,> 100 µM,,> 100 µM,,> 100 µM
C=CC(=O)Nc1cccc(C)c1Nc1ncc2cc(-c3c(Cl)c(OC)cc(OC)c3Cl)ccc2n1,7.01 µM,> 100 µM,18.3 µM,82.6 µM,2.57 µM,44.9 µM,1.38 µM,10.8 µM,4.11 µM,24.8 µM,1.76 µM,7.61 µM,5.87 µM,> 100 µM,2.13 µM,15 µM,2.78 µM,13.1 µM,2.33 µM,14.1 µM
CC(=O)c1c[nH]cc1CO,,> 10 µM,,> 10 µM,,> 10 µM,,> 10 µM,,> 10 µM,,> 10 µM,,> 10 µM,,> 10 µM,,> 10 µM,,> 10 µM
Clc1nc(Cl)c(Cc2ccccc2)c(Cl)n1,,32 µM,,28.9 µM,,22.5 µM,,20 µM,,66.3 µM,,> 100 µM,,32 µM,,> 100 µM,,9.16 µM,,> 100 µM
O=C(NCP(=O)(O)O)c1cccnc1,,> 100 µM,,> 100 µM,,> 100 µM,,> 100 µM,,> 100 µM,,> 100 µM,,> 100 µM,,> 100 µM,,> 100 µM,,> 100 µM
C=C(C)[C@H](O)C(O)CC(C)[C@@H]1CCC23CC12CCC1[C@@]2(C)CCC(OC(C)=O)C(C)(C)C2CC(OC2OC(COC(C)=O)C(O)C(O)C2O)[C@]13C (some centres not stated),,12.6 µM,,14.3 µM,,9.03 µM,,12.8 µM,,11.3 µM,,8.94 µM,,13 µM,,5.08 µM,,11.6 µM,,10.7 µM
COC(=O)[C@@H](C)C[C@H](Cc1ccccc1)NC(=O)c1csc([C@@H](C[C@H](C(C)C)N(C)C(=O)C2(NC(=O)[C@H]3CCCCN3C)CC2)OC(C)=O)n1,,> 33.3 µM,0.0183 µM and < 0.00333 µM,< 0.00333 µM,0.00434 µM and 0.00333 µM,> 33.3 µM,0.00868 µM and < 0.00333 µM,,0.00655 µM and 0.00333 µM,> 33.3 µM,0.00965 µM and 0.00333 µM,> 33.3 µM,0.0156 µM and 0.00333 µM,> 33.3 µM,0.000657 µM and < 0.00333 µM,0.00685 µM and < 0.00333 µM,0.000567 µM and 0.00333 µM,,0.00947 µM and 0.00333 µM,> 33.3 µM
C=C1CC[C@@H]2[C@](C)(COC(C)=O)[C@H](OC(C)=O)CC[C@@]2(C)[C@@H]1C/C=C1/C(=O)OC[C@H]1OC(C)=O,1.71 µM,3.22 µM,19.1 µM,36.3 µM,2.83 µM,14.2 µM,1.7 µM,3.22 µM,10.5 µM,27.7 µM,3.8 µM,16.1 µM,3.07 µM,13.3 µM,2.61 µM,6.78 µM,2.17 µM,4.21 µM,1.42 µM,2.85 µM
